Test results: patent US9682953B2, “Amide compounds, compositions and applications thereof” (Advinus Therapeutics Limited, priority 2011, dated 2017)
Where two headings read alike, the source gives them in different places.

What was measured:
[1] = molecular target: human Fatty Acid Amide Hydrolase (FAAH) (Homo sapiens (Human), UniProt O00519); assay: biochemical
[2] = molecular target: rat Fatty Acid Amide Hydrolase (FAAH) (Rattus norvegicus (Rat), UniProt P97612); assay: FAAH in vitro fluorescence assay (AAMCA hydrolysis), rat enzyme; type: biochemical; details: for inhibition at 0.1 µM: read-out: rFAAH % inhibition at 100 nM; for inhibition at 0.1 µM / rFAAH % inhibition at 100 nM: 100 nM (tier I)
rat Fatty Acid Amide Hydrolase (FAAH), sequence (P97612 30-579): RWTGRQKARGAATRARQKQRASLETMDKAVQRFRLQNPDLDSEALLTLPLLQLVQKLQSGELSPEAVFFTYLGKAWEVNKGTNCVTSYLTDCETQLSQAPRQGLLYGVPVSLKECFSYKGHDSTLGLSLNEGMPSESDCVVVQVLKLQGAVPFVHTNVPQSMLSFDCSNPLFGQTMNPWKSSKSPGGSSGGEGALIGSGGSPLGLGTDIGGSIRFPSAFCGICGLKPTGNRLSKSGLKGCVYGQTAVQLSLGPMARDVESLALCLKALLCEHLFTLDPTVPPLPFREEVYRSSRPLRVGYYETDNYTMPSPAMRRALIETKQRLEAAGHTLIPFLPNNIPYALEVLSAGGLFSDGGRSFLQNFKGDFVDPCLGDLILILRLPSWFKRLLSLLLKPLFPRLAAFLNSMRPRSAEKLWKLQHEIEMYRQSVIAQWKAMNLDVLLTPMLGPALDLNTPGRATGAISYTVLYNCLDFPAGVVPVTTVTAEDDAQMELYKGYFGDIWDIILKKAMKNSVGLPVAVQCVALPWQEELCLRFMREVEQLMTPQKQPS
Procedure: Material and Reagents: All reagents were purchased from Sigma-Aldrich unless specified. […] Chaperone protein groEL-groES in pGRO7 plasmid (Takara Bio Inc, Japan) was co-expressed with Fatty Acid Amide Hydrolase (FAAH) to improve solubility of the protein expressed in E coli. […] Briefly, the bacterial cultures in Luria Broth (2 L) were induced with arabinose (2 mM) and Isopropyl (β-D-1-thiogalactopyranoside, IPTG (1 mM), for 20 h at room temperature. The cultures were centrifuged at 1200×g for 10 min and the cell pellet was resuspended in 100 mL buffer containing of 20 mM NaPi (pH 7.4), 100 mM NaCl, Benzonase (500u), Aprotinin (1 μg/mL) and Leupeptin (1 μg/mL). Cells were lyzed by sonication (Amp 20%, Pulse 15 s×15, on ice) and the cell debris removed by centrifugation at 5000×g for 20 min. The supernatant was enriched via ultracentrifugation at 100,000×g for 1 h and the cell pellet was resuspended in 16 mL buffer containing 20 mM NaPi (pH 7.8), 500 mM NaCl, 1% Triton X-100. The resuspended cell extract was subjected to ultra-centrifugation at 100,000×g for 1 h and the enriched supernatant was used in the in vitro assay. All protein extraction steps were carried out on ice or at 4° C.
The assay was carried out in 200 μL volume in a 96-well black polystyrene plate (Greiner Bio-one, Germany). Each reaction consisted of human Fatty Acid Amide Hydrolase (FAAH) protein and 10 μM AAMCA in assay buffer containing 50 mM HEPES, 1 mM EDTA and 0.1% BSA, pH 7.4. The reaction was incubated with 2 μL of varying concentrations of inhibitor in DMSO (final concentration of DMSO 1%) with shaking for 1 min and monitored for increase in fluorescence in kinetic mode for 50 min. […] Rate of reaction as a function of the concentration of the inhibitor was used to determine the IC50 of the inhibitors. Data was analyzed using GraphPad Prism 5 (GraphPad Software Inc., San Diego, Calif.). The activity of the compounds for rat Fatty Acid Amide Hydrolase (FAAH) was evaluated as described above with rat Fatty Acid Amide Hydrolase (FAAH) protein and 10 μM AAMCA substrate.

[3] = human FAAH, read-out: hFAAH IC50

human Fatty Acid Amide Hydrolase (FAAH), sequence (O00519 30-579): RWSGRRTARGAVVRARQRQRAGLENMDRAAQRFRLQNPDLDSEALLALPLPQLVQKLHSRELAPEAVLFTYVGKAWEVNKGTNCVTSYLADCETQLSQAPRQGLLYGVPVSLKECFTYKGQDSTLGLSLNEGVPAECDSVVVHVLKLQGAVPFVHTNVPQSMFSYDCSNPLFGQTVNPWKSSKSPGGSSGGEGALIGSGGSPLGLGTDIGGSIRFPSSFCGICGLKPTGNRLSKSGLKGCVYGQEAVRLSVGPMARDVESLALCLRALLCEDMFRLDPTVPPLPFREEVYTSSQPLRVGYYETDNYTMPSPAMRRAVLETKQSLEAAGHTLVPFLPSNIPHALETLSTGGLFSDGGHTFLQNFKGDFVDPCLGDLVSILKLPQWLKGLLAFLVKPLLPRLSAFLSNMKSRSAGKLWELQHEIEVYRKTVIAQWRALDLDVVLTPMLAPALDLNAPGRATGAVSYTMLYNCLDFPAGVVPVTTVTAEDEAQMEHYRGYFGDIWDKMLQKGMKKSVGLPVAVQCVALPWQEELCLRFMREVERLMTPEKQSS

| SMILES | IC50 [1, 3] [nM] | IC50 ([2]; rat FAAH, read-out: rFAAH IC50) [nM] | IC50 ([1]; read-out: hFAAH IC50) [nM] | further results |
| --- | --- | --- | --- | --- |
| O=C(NC1CCC(=Cc2cccc(Oc3ccc(C(F)(F)F)cn3)c2)CC1)c1cncc(Cl)c1 (stereo not drawn) [Example 2.A-32, 5-Chloro-N-[4-[[3-[[5-(trifluoromethyl)-2-pyridyl]oxy]phenyl]methylene]cyclohexyl]pyridine-3-carboxamide] | 6 |  |  | inhibition at 0.1 µM ([2]; rat FAAH): 40% |
| O=C(Nc1cnccn1)C1CCC(=Cc2cccc(Oc3ccc(C(F)(F)F)cn3)c2)CC1 (stereo not drawn) [Example 1.A-3, N-Pyrazin-2-yl-4-[[3-[[5-(trifluoromethyl)-2-pyridyl]oxy]phenyl]methylene]cyclohexanecarboxamide] | 9 | 44 |  |  |
| Cc1nnc(C(=O)NC2CCC(=Cc3cccc(Oc4ccc(C(F)(F)F)cn4)c3)CC2)o1 (stereo not drawn) [Example 2.A-20, 5-Methyl-N-[4-[[3-[[5-(trifluoromethyl)-2-pyridyl]oxy]phenyl]methylene]cyclohexyl]-1,3,4-oxadiazole-2-carboxamide] | 334 |  |  | rFAAH % inhibition at 100 nM ([2]; rat FAAH): No inhibition at 100 nM |
| O=C(NC1CCC(=Cc2cccc(Oc3ccc(C(F)(F)F)cn3)c2)CC1)c1ccc(-n2ccnn2)nc1 (stereo not drawn) [Example 2.B-14, 6-(Triazol-1-yl)-N-[4-[[3-[[5-(trifluoromethyl)-2-pyridyl]oxy]phenyl]methylene]cyclohexyl]pyridine-3-carboxamide] |  | 11 | 2 |  |
| O=C(NC1CCC(=Cc2cccc(Oc3ccc(C(F)(F)F)cn3)c2)CC1)c1cccnc1Cl (stereo not drawn) [Example 2.A-25, 2-Chloro-N-[4-[[3-[[5-(trifluoromethyl)-2-pyridyl]oxy]phenyl]methylene]cyclohexyl]pyridine-3-carboxamide] |  |  | 16 | rFAAH % inhibition at 100 nM ([2]; rat FAAH): No inh at 100 nM |
| Cn1cc(C(=O)NC2CCC(=Cc3cccc(Oc4ccc(C(F)(F)F)cn4)c3)CC2)cn1 (stereo not drawn) [Example 2.A-18, 1-Methyl-N-[4-[[3-[[5-(trifluoromethyl)-2-pyridyl]oxy]phenyl]methylene]cyclohexyl]pyrazole-4-carboxamide] |  |  |  | inhibition at 0.1 µM ([1]; read-out: hFAAH % inhibition at 100 nM, human FAAH, 100 nM (tier I)): 45%; inhibition at 0.1 µM ([2]; rat FAAH): 38% |
| O=C(NC1CCC(=Cc2cccc(Oc3ccc(C(F)(F)F)cn3)c2)CC1)c1c[nH]c2ccccc12 (single isomer, unassigned; (+)) [Example 20.A-17, (+)-N-[4-[[3-[[5-(trifluoromethyl)-2-pyridyl]oxy]phenyl]methylene]cyclohexyl]-1H-indole-3-carboxamide] |  |  | 155 | inhibition at 10 µM ([2]; read-out: rFAAH % inhibition at 10 uM, rat FAAH, 10 uM): 90% |
| Nc1ccc(C(=O)NC2CCC(=Cc3cccc(Oc4ccc(C(F)(F)F)c(Cl)n4)c3)CC2)cn1 (stereo not drawn) [Example 2.E-20, 6-Amino-N-[4-[[3-[[6-chloro-5-(trifluoromethyl)-2-pyridyl]oxy]phenyl]methylene]cyclohexyl]pyridine-3-carboxamide] | 3 | 71 |  |  |
| O=C(NC1CCC(=Cc2cccc(Oc3ccc(C(F)(F)F)cn3)c2)CC1)c1cnc2[nH]ccc2c1 (single isomer, unassigned; (+)) [Example 20.A-13, (+)-N-[4-[[3-[[5-(trifluoromethyl)-2-pyridyl]oxy]phenyl]methylene]cyclohexyl]-1H-pyrrolo[2,3-b]pyridine-5-carboxamide] |  | 407 | 55 |  |
| O=C(NC1CCC(=Cc2cccc(Oc3ccc(C(F)(F)F)cn3)c2)CC1)c1c[nH]nc1C(F)(F)F (stereo not drawn) [Example 2.A-29, 3-(Trifluoromethyl)-N-[4-[[3-[[5-(trifluoromethyl)-2-pyridyl]oxy]phenyl]methylene]cyclohexyl]-1H-pyrazole-4-carboxamide] |  | 24 | 3 |  |
| O=C(NC1CCC(=Cc2cccc(Oc3ccc(C(F)(F)F)cn3)c2)CC1)c1ccc(-n2cnnc2)nc1 (stereo not drawn) [Example 2.B-13, 6-(1,2,4-Triazol-4-yl)-N-[4-[[3-[[5-(trifluoromethyl)-2-pyridyl]oxy]phenyl]methylene]cyclohexyl]pyridine-3-carboxamide] |  | 14 | 2 |  |
| CNc1ccc(C(=O)NC2CCC(=Cc3cccc(Oc4ccc(C(F)(F)F)cn4)c3)CC2)cn1 (stereo not drawn) [Example 5.A-1, 6-(Methylamino)-N-[4-[[3-[[5-(trifluoromethyl)-2-pyridyl]oxy]phenyl]methylene]cyclohexyl]pyridine-3-carboxamide] |  | 11 | 4 |  |
| Nc1ccc(C(=O)NC2CCC(=Cc3cccc(Oc4ccc(C(F)(F)F)cn4)c3)CC2)cn1 (single isomer, unassigned; (-)) [Example 20.A-4, (−)-6-Amino-N-[4-[[3-[[5-(trifluoromethyl)-2-pyridyl]oxy]phenyl]methylene]cyclohexyl]pyridine-3-carboxamide] |  | 11 | 1 |  |
| O=C(NC1CCC(=Cc2cccc(Oc3ccc(C(F)(F)F)cn3)c2)CC1)c1cnccn1 (stereo not drawn) [Example 2.A-5, N-[4-[[3-[[5-(Trifluoromethyl)-2-pyridyl]oxy]phenyl]methylene]cyclohexyl]pyrazine-2-carboxamide] | 9 |  |  | inhibition at 0.1 µM ([2]; rat FAAH): 27% |
| CC(CO)Nc1ccc(C(=O)NC2CCC(=Cc3cccc(Oc4ccc(C(F)(F)F)cn4)c3)CC2)cn1 (stereo not drawn) [Example 5.A-8, 6-[(2-Hydroxy-1-methyl-ethyl)amino]-N-[4-[[3-[[5-(trifluoromethyl)-2-pyridyl]oxy]phenyl]methylene]cyclohexyl]pyridine-3-carboxamide] | 16 | 32 |  |  |
| Cc1nc(Oc2cccc(C=C3CCC(NC(=O)c4c[nH]nc4C(F)(F)F)CC3)c2)ccc1C(F)(F)F (stereo not drawn) [Example 2.E-18, N-[4-[[3-[[6-Methyl-5-(trifluoromethyl)-2-pyridyl]oxy]phenyl]methylene]cyclohexyl]-3-(trifluoromethyl)-1H-pyrazole-4-carboxamide] | 13 |  |  | inhibition at 0.1 µM ([2]; rat FAAH): 55% |
| O=C(NC1CCC(=Cc2cccc(Oc3ccc(C(F)(F)F)cn3)c2)CC1)c1cncc(F)c1 (stereo not drawn) [Example 2.A-15, 5-Fluoro-N-[4-[[3-[[5-(trifluoromethyl)-2-pyridyl]oxy]phenyl]methylene]cyclohexyl]pyridine-3-carboxamide] |  |  |  | IC50 ([1]; hFAAH IC50): 5 nM; IC50 [2]: 188 nM |
| O=C(Nc1ncc(Cl)s1)C1CCC(=Cc2cccc(Oc3ccc(C(F)(F)F)cn3)c2)CC1 (stereo not drawn) [Example 1.1, N-(5-Chlorothiazol-2-yl)-4-[[3-[[5-(trifluoromethyl)-2-pyridyl]oxy]phenyl]methylene]cyclohexanecarboxamide] | 16 | 60 |  |  |
| O=C(NC1CCC(=Cc2cccc(Oc3ccc(C(F)(F)F)cn3)c2)CC1)c1ccc(-c2cc[nH]n2)nc1 (stereo not drawn) [Example 2.B-4, 6-(1H-Pyrazol-3-yl)-N-[4-[[3-[[5-(trifluoromethyl)-2-pyridyl]oxy]phenyl]methylene]cyclohexyl]pyridine-3-carboxamide] | 2 | 11 |  |  |
| O=C(NC1CCC(=Cc2cccc(Oc3ccc(C(F)(F)F)cn3)c2)CC1)c1ccnnc1 (stereo not drawn) [Example 2.A-17, N-[4-[[3-[[5-(Trifluoromethyl)-2-pyridyl]oxy]phenyl]methylene]cyclohexyl]pyridazine-4-carboxamide] | 10 |  |  | inhibition at 0.1 µM ([2]; rat FAAH): 14% |
| O=C(NC1CCC(=Cc2cccc(Oc3ccc(C(F)(F)F)cn3)c2)CC1)c1ccc(Cl)nc1 (stereo not drawn) [Example 2.A-22, 6-Chloro-N-[4-[[3-[[5-(trifluoromethyl)-2-pyridyl]oxy]phenyl]methylene]cyclohexyl]pyridine-3-carboxamide] | 5 | 81 |  |  |
